Data taken from US20210130352A1, “OGA INHIBITOR COMPOUNDS” (Janssen Pharmaceutica NV, priority 2018, published 2021).

SMILES: Cc1cc(C(F)(F)F)cc(C)c1Nc1nccc2c1ccn2CC(=O)N(C)C [Co. No. 18]
- melting point: 214.46 °C

SMILES: Cc1cncc(Cl)c1Nc1nccc2c1ccn2CC(=O)N1CCC1 [Co. No. 12]
- melting point: 211.88 °C

SMILES: Cc1ccc2c(ccn2C)c1Nc1nccc2c1ccn2CC(=O)N(C)C [Co. No. 2]
- melting point: 251.73 °C

SMILES: CN(C)C(=O)Cn1ccc2c(Nc3c(Cl)cccc3Cl)nccc21 [Co. No. 5]
- melting point: 215.7 °C

SMILES: COc1nccc(C)c1Nc1nccc2c1ccn2CC(=O)N(C)C [Co. No. 4]
- melting point: 221.78 °C

SMILES: Cc1cc(C(F)(F)F)cc(C(C)C)c1Nc1nccc2c1ccn2CC(=O)N(C)C [Co. No. 6]
- melting point: 228.29 °C

SMILES: CC(C)c1cc(OC(F)(F)F)cc(Cl)c1Nc1nccc2c1ccn2CC(=O)N(C)C [Co. No. 27]
- melting point: 69.34 °C

SMILES: Cc1cccc(Cl)c1Nc1nccc2c1ccn2CC(=O)N(C)C [Co. No. 22]
- melting point: 211.1 °C

SMILES: CN(C)C(=O)Cn1ccc2c(Nc3c(F)cccc3Cl)nccc21 [Co. No. 23]
- melting point: 202.75 °C

SMILES: CN(C)C(=O)Cn1ccc2c(Nc3c(Cl)cccc3OC(F)(F)F)nccc21 [Co. No. 24]
- melting point: 200.76 °C

SMILES: Cc1cccc(C(F)(F)F)c1Nc1nccc2c1ccn2CC(=O)N(C)C [Co. No. 21]
- melting point: 187.16 °C
